Legend:
[1] = system: Root-knot nematodes (Meloidogyne spp), juveniles (J2); test: Nematocidal activity against root-knot nematodes, 24 well bioassay plate, percent mortality; type: in vivo; details: 70-100 J2 juveniles per well, 22±2° C., 70±5% RH, dead/inactive counted at 24, 48, 72 and 96 hours, read-out: Rating (% Mortality)
Description: The compound to be tested (4 mg) was dissolved in 40 μl of DMSO to make 100,000 PPM concentration stock solution. The clear solution was obtained by vortexing. The nematode suspension (250 μl) having 70-100 juveniles (J2) of Root-knot nematodes Meloidogyne spp. pipetted out to each cell of 24 well bioassay plate. Sterile water (1 ml) was pipetted out in fresh 2.5 ml Eppendorf micro-centrifuge tubes. The desired concentration (500 ppm) of the compound was prepared by adding stock solution in 2.5 ml Eppendorf micro-centrifuge tubes. For each treatment 4 replications were maintained. The bioassay plates were incubated at 22±2° C. and 70±5% RH in humidity chambers.

[2] = Stability studies: storage at room temperature and accelerated storage condition, purity estimated by HPLC; type: physicochemical; details: properly packed material; for purity estimated by HPLC, Day 14, Condition 54° C. ± 2° C. / purity estimated by HPLC, Day Zero, Condition 54° C. ± 2° C.: 54° C. ± 2° C. (accelerated storage)
From the text: The compounds of present invention were stored under conditions as shown in below table [room temperature and on accelerated storage condition (ATS)] and the purity was estimated by HPLC. The properly packed material was subjected to the conditions mentioned in the table below.

SMILES	mortality at 500 ppm [1]	further results
C=CCc1cc(/C=N/[C@@H](CCCNC(=N)N)C(=O)O)c(O)c(OC)c1 [Example 20, (E)-N^2-{[2-hydroxy-3-methoxy-5-(prop-2-en-1-yl)phenyl]methylidene}-L-arginine]	70 to 100%	
N=C(N)NCCC[C@H](/N=C/c1cccc2c1OCO2)C(=O)O [Example 34, (E)-N2-[(2H-1,3-benzodioxol-4-yl)methylidene]-L-arginine]	50 to 69%	
COc1ccc(O)c(/C=N/[C@@H](CCCNC(=N)N)C(=O)O)c1 [Example 10, (E)-N^2-[(2-hydroxy-5-methoxyphenyl)methylidene]-L-arginine]	50 to 69%	
Cc1ccc(/C=N/[C@@H](CCCNC(=N)N)C(=O)O)o1 [Example 26, (E)-N^2-[(5-methylfuran-2-yl)methylidene]-L-arginine]	70 to 100%	purity estimated by HPLC, Day 14, Condition 25° C. ± 2° C. [2]: 99.10; purity estimated by HPLC, Day 14, Condition 54° C. ± 2° C. [2]: 99.00; purity estimated by HPLC, Day Zero, Condition 25° C. ± 2° C. [2]: 99.20; purity estimated by HPLC, Day Zero, Condition 54° C. ± 2° C. [2]: 99.00
Cc1cc(O)cc(O)c1/C=N/[C@@H](CCCNC(=N)N)C(=O)O [Example 12, (E)-N^2-[(2,4-dihydroxy-6-methylphenyl)methylidene]-L-arginine]	0 to 49%	
N=C(N)NCCC[C@H](/N=C/c1cc(F)cc(Cl)c1O)C(=O)O [Example 15, (E)-N^2-[(3-chloro-5-fluoro-2-hydroxyphenyl)methylidene]-L-arginine]	0 to 49%	
N=C(N)NCCC[C@H](/N=C/c1ccco1)C(=O)O [Example 25, (E)-N^2-[(furan-2-yl)methylidene]-L-arginine]	70 to 100%	
N=C(N)NCCC[C@H](/N=C/c1cccc(F)c1O)C(=O)O [Example 5, (E)-N^2-[(3-fluoro-2-hydroxyphenyl)methylidene]-L-arginine]	70 to 100%	
N=C(N)NCCC[C@H](/N=C/c1cccc(C(F)(F)F)c1)C(=O)O [Example 2, (E)-N^2-{[3-(trifluoromethyl)phenyl]methylidene}-L-arginine]	70 to 100%	purity estimated by HPLC, Day 14, Condition 25° C. ± 2° C. [2]: 99.70; purity estimated by HPLC, Day 14, Condition 54° C. ± 2° C. [2]: 99.55; purity estimated by HPLC, Day Zero, Condition 25° C. ± 2° C. [2]: 99.71; purity estimated by HPLC, Day Zero, Condition 54° C. ± 2° C. [2]: 99.60
N=C(N)NCCC[C@H](/N=C/c1cccc2ccccc12)C(=O)O [Example 28, (E)-N2-[(naphthalen-1-yl)methylidene]-L-arginine]	50 to 69%	
N=C(N)NCCC[C@H](/N=C/c1c(O)cccc1Cl)C(=O)O [Example 4, (E)-N^2-[(6-chloro-2-hydroxyphenyl)methylidene]-L-arginine]	50 to 69%	
N=C(N)NCCC[C@H](/N=C/c1cc(F)ccc1O)C(=O)O [Example 7, (E)-N^2-[(5-fluoro-2-hydroxyphenyl)methylidene]-L-arginine]	70 to 100%	
C=CCc1cccc(/C=N/[C@@H](CCCNC(=N)N)C(=O)O)c1OC [Example 32, (E)-N2-{[2-methoxy-3-(prop-2-en-1-yl)phenyl]methylidene}-L-arginine]	50 to 69%	
N=C(N)NCCC[C@H](/N=C/c1ccc2ccccc2c1)C(=O)O [Example 30, (E)-N2-[(naphthalen-2-yl)methylidene]-L-arginine]	70 to 100%	purity estimated by HPLC, Day 14, Condition 25° C. ± 2° C. [2]: 99.65; purity estimated by HPLC, Day 14, Condition 54° C. ± 2° C. [2]: 99.45; purity estimated by HPLC, Day Zero, Condition 25° C. ± 2° C. [2]: 99.70; purity estimated by HPLC, Day Zero, Condition 54° C. ± 2° C. [2]: 99.65
COc1cccc(O)c1/C=N/[C@@H](CCCNC(=N)N)C(=O)O [Example 11, (E)-N^2-[(2-hydroxy-6-methoxyphenyl)methylidene]-L-arginine]	70 to 100%	purity estimated by HPLC, Day 14, Condition 25° C. ± 2° C. [2]: 99.00; purity estimated by HPLC, Day 14, Condition 54° C. ± 2° C. [2]: 98.85; purity estimated by HPLC, Day Zero, Condition 25° C. ± 2° C. [2]: 99.10; purity estimated by HPLC, Day Zero, Condition 54° C. ± 2° C. [2]: 99.20
N=C(N)NCCC[C@H](/N=C/c1ccc2c(c1)OCO2)C(=O)O [Example 24, (E)-N^2-[(2H-1,3-benzodioxol-5-yl)methylidene]-L-arginine]	50 to 69%	purity estimated by HPLC, Day 14, Condition 25° C. ± 2° C. [2]: 98.80; purity estimated by HPLC, Day 14, Condition 54° C. ± 2° C. [2]: 98.90; purity estimated by HPLC, Day Zero, Condition 25° C. ± 2° C. [2]: 98.90; purity estimated by HPLC, Day Zero, Condition 54° C. ± 2° C. [2]: 98.75
C=CCc1cc(/C=N/[C@@H](CCCNC(=N)N)C(=O)O)c(OC)c(OC)c1 [Example 21, (E)-N^2-{[2,3-dimethoxy-5-(prop-2-en-1-yl)phenyl]methylidene}-L-arginine]	70 to 100%	

SMILES	mortality at 500 ppm [1]	further results
N=C(N)NCCC[C@H](/N=C/c1ccsc1)C(=O)O [Example 31, (E)-N2-[(thiophen-3-yl)methylidene]-L-arginine]	50 to 69%	
N=C(N)NCCC[C@H](/N=C/c1ccccc1C(F)(F)F)C(=O)O [Example 1, (E)-N^2-{[2-(trifluoromethyl)phenyl]methylidene}-L-arginine]	70 to 100%	
N=C(N)NCCC[C@H](/N=C/c1ccc(F)cc1O)C(=O)O [Example 6, (E)-N^2-[(4-fluoro-2-hydroxyphenyl)methylidene]-L-arginine]	70 to 100%	
C=CCc1cccc(/C=N/[C@@H](CCCNC(=N)N)C(=O)O)c1O [Example 22, (E)-N2-{[2-hydroxy-3-(prop-2-en-1-yl)phenyl]methylidene}-L-arginine]	70 to 100%	purity estimated by HPLC, Day 14, Condition 25° C. ± 2° C. [2]: 99.50; purity estimated by HPLC, Day 14, Condition 54° C. ± 2° C. [2]: 99.30; purity estimated by HPLC, Day Zero, Condition 25° C. ± 2° C. [2]: 99.60; purity estimated by HPLC, Day Zero, Condition 54° C. ± 2° C. [2]: 99.63
N=C(N)NCCC[C@H](/N=C/c1cc(OC(F)(F)F)ccc1O)C(=O)O [Example 14, (E)-N^2-{[2-hydroxy-5-(trifluoromethoxy)phenyl]methylidene}-L-arginine]	50 to 69%	
CSc1ccc(/C=N/[C@@H](CCCNC(=N)N)C(=O)O)cc1 [Example 19, (E)-N^2-{[4-(methylsulfanyl)phenyl]methylidene}-L-arginine]	50 to 69%	
COc1ccc(/C=N/[C@@H](CCCNC(=N)N)C(=O)O)cc1 [Example 16, (E)-N^2-[(4-methoxyphenyl)methylidene]-L-arginine]	70 to 100%	
COc1cccc(/C=N/[C@@H](CCCNC(=N)N)C(=O)O)c1O [Example 9, (E)-N^2-[(2-hydroxy-3-methoxyphenyl)methylidene]L-arginine]	0 to 49%	
COc1ccc(/C=N/[C@@H](CCCNC(=N)N)C(=O)O)c(OC)c1 [Example 13, (E)-N^2-[(2,4-dimethoxyphenyl)methylidene]-L-arginine]	0 to 49%	
N=C(N)NCCC[C@H](/N=C/c1ccc(CO)o1)C(=O)O [Example 27, (E)-N^2-{[5-(hydroxymethyl)furan-2-yl]methylidene}-L-arginine]	50 to 69%	
N=C(N)NCCC[C@H](/N=C/c1c(O)cccc1F)C(=O)O [Example 8, (E)-N^2-[(6-fluoro-2-hydroxyphenyl)methylidene]-L-arginine]	70 to 100%	
COc1ccc(/C=N/[C@@H](CCCNC(=N)N)C(=O)O)cc1O [Example 17, (E)-N^2-[(3-hydroxy-4-methoxyphenyl)methylidene]-L-arginine]	0 to 49%	
N=C(N)NCCC[C@H](/N=C/c1c[nH]c2ccccc12)C(=O)O [Example 23, (E)-N^2-[(1H-indol-3-yl)methylidene]-L-arginine]	50 to 69%	
COc1ccc(/C=N/[C@@H](CCCNC(=N)N)C(=O)O)cc1Cl [Example 18, (E)-N^2-[(3-chloro-4-methoxyphenyl)methylidene]-L-arginine]	50 to 69%	
COc1cc(/C=N/[C@@H](CCCNC(=N)N)C(=O)O)cc2c1OCO2 [Example 33, (E)-N2-[(7-methoxy-2H-1,3-benzodioxol-5-yl)methylidene]-L-arginine]	50 to 69%	
N=C(N)NCCC[C@H](/N=C/c1ccc(Cl)cc1O)C(=O)O [Example 3, (E)-N^2-[(4-chloro-2-hydroxyphenyl)methylidene]-L-arginine]	50 to 69%	
N=C(N)NCCC[C@H](/N=C/c1cccnc1)C(=O)O [Example 29, (E)-N2-[(pyridin-3-yl)methylidene]-L-arginine]	50 to 69%	
